Assay results reported in patent publication US20030040534A1, “Enantiomers of N-[[2'-[[(4,5-dimethyl-3-isoxazolyl)amino]sulfonyl]-4-(2-oxazolyl)[1,1'-biphenyl]-2-yl]methyl]-N,3,3-trimethylbutanamide” (priority 2001, published 2003).
Where two headings read alike, the source gives them in different places.

Legend:
[1] = biological target: T1, human endothelin A receptor (Homo sapiens, UniProt P25101); experiment: In vitro ETA binding, attached cell assay, [125I]-ET-1 competition
T1 construct: expressed in transfected cells; host or cells: CHO-K1 (G-418 selected)
T1 sequence (P25101 21-427): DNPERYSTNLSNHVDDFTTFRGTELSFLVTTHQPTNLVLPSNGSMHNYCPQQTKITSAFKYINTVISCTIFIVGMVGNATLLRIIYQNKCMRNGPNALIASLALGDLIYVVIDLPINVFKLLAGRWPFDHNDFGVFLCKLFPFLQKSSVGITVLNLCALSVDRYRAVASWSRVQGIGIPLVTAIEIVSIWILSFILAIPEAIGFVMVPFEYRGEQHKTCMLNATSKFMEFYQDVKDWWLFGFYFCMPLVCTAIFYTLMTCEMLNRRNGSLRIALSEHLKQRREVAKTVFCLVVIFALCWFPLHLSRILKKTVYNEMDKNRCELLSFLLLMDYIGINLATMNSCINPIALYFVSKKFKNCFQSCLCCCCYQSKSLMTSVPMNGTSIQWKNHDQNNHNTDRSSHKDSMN
Experimental: The isolated atropisomers of Example 2 were tested for in vitro ETA binding according to the following procedure:
CHO-K1 cells expressing the human endothelin A receptor were cultured in Ham's F12 media (Gibco/BRL, Grand Island, N.Y.) with 10% fetal bovine serum (Hyclone), supplemented with 300 μg/mL Geneticin (G-418 Gibco BRL Products, Grand Island, N.Y.) and maintained at 37° C. with 5% CO2 in a humidified incubator. Forty eight hours prior to assay, the cells were treated with 0.25% trypsin-EDTA and were seeded in Falcon, 96 well tissue culture plates at a density of 1.5×10^4 cells/well (the monolayer should reach 80-90% confluency by the day of assay).
In the attached cell assay, culture media was aspirated from each well and the monolayers were washed with 75 μl of room temperature PBS (Mg^++, Ca^++ free). After the addition of 75 μl of cold binding buffer to each well, the plate was chilled at 4° C. for 3 minutes before the addition of competing drugs and isotope. The binding assay was performed in a total volume of 125 μl consisting of assay buffer, maintained at 4° C. (50 mM Tris, pH 7.4, including 1% BSA, and 2 μM phosphoramidon), and 25 μl of either 500 nM ET-1 (to define nonspecific binding) or competing drugs. The reaction was initiated with the addition of 25 μl of 0.25 nM [^125I]-ET-1 (New England Nuclear). Incubation was carried out with gentle orbital shaking, at 4° C., reaching equilibrium at 4 hours. The reaction was terminated by aspiration of the reaction buffer and two subsequent washes with room temperature PBS (Mg^++, Ca^++ free). The cells were dissociated by the addition of 100 μl of 0.5N NaOH followed by incubation for 40 minutes. Samples were then transferred from the 96 well format into tubes for counting in a Cobra gamma counter (Packard). Data was analyzed with curve fitting software by Sigma plot.
In each assay run that was performed, one sample of each atropisomer as well as one sample of racemate was tested for activity.

[2] = In vitro interconversion (racemization) of enantiomeric atropisomers under pseudo-physiological conditions, chiral HPLC
Experimental: The in vitro interconversion of N-[[2′-[[(4,5-dimethyl-3-isoxazolyl)amino]sulfonyl]-4-(2-oxazolyl)[1,1′-biphenyl]-2-yl]methyl]-N,3,3-trimethylbutanamide enantiomeric atropisomers was investigated using normal phase chiral HPLC with ultraviolet and laser polarimetric detection, under pseudo-physiological conditions, i.e., aqueous medium at 37° C., gastric fluid at 37° C. and human serum at 37° C.

[3] = Table 1, 97% pure atropisomers of Example 2, Run 1, CHO-K1 cells expressing human ETA, 4° C., read-out: IC50 (nM) Run 1
[4] = Table 1, 97% pure atropisomers of Example 2, Run 2, read-out: IC50 (nM) Run 2
[5] = Table 1, 97% pure atropisomers of Example 2, Run 3, read-out: IC50 (nM) Run 3
[6] = Table 1, 97% pure atropisomers of Example 2, Run 4, read-out: IC50 (nM) Run 4
[7] = Table 2, 99.2% pure atropisomers of Example 2, Run 1, read-out: IC50 (nM) Run 1
[8] = Table 2, 99.2% pure atropisomers of Example 2, Run 2, read-out: IC50 (nM) Run 2
[9] = Table 2, 99.2% pure atropisomers of Example 2, Run 3, read-out: IC50 (nM) Run 3
[10] = Table 2, 99.2% pure atropisomers of Example 2, Run 4, read-out: IC50 (nM) Run 4
[11] = Table 2, 99.2% pure atropisomers of Example 2, Run 5, read-out: IC50 (nM) Run 5
[12] = Table 2, 99.2% pure atropisomers of Example 2, Run 6, read-out: IC50 (nM) Run 6
[13] = Table 2, 99.2% pure atropisomers of Example 2, Run 7, read-out: IC50 (nM) Run 7
[14] = Table 2, 99.2% pure atropisomers of Example 2, Run 8, read-out: IC50 (nM) Run 8
[15] = Table 2, 99.2% pure atropisomers of Example 2, Run 9, read-out: IC50 (nM) Run 9

Row | SMILES | IC50 [1, 3] [nM] | IC50 [1, 4] [nM] | IC50 [1, 5] [nM] | IC50 [1, 6] [nM] | IC50 [1, 7] [nM] | IC50 [1, 8] [nM] | IC50 [1, 9] [nM] | IC50 [1, 10] [nM] | IC50 [1, 11] [nM] | IC50 [1, 12] [nM] | IC50 [1, 13] [nM] | IC50 [1, 14] [nM] | IC50 [1, 15] [nM] | other results
1 | Cc1onc(NS(=O)(=O)c2ccccc2-c2ccc(-c3ncco3)cc2CN(C)C(=O)CC(C)(C)C)c1C (racemic) [Racemate, N-[[2′-[[(4,5-dimethyl-3-isoxazolyl)amino]sulfonyl]-4-(2-oxazolyl)[1,1′-biphenyl]-2-yl]methyl]-N,3,3-trimethylbutanamide] | – | – | – | – | – | – | – | – | – | – | – | – | – | IC50 ([1]; IC50 (nM) Run 1, Table 1, 97% pure atropisomers of Example 2, Run 1, CHO-K1 cells expressing human ETA, 4° C.): 0.12 nM; IC50 ([1]; IC50 (nM) Run 1, Table 2, 99.2% pure atropisomers of Example 2, Run 1): 0.018 nM; IC50 ([1]; IC50 (nM) Run 2, Table 1, 97% pure atropisomers of Example 2, Run 2): 0.24 nM; IC50 ([1]; IC50 (nM) Run 2, Table 2, 99.2% pure atropisomers of Example 2, Run 2): 0.08 nM; IC50 ([1]; IC50 (nM) Run 3, Table 1, 97% pure atropisomers of Example 2, Run 3): 0.21 nM; IC50 ([1]; IC50 (nM) Run 3, Table 2, 99.2% pure atropisomers of Example 2, Run 3): 0.4 nM; IC50 ([1]; IC50 (nM) Run 4, Table 1, 97% pure atropisomers of Example 2, Run 4): 0.1 nM; IC50 ([1]; IC50 (nM) Run 4, Table 2, 99.2% pure atropisomers of Example 2, Run 4): 0.3 nM; IC50 ([1]; IC50 (nM) Run 5, Table 2, 99.2% pure atropisomers of Example 2, Run 5): 0.2 nM; IC50 ([1]; IC50 (nM) Run 6, Table 2, 99.2% pure atropisomers of Example 2, Run 6): 0.4 nM; IC50 ([1]; IC50 (nM) Run 7, Table 2, 99.2% pure atropisomers of Example 2, Run 7): 0.24 nM; IC50 ([1]; IC50 (nM) Run 8, Table 2, 99.2% pure atropisomers of Example 2, Run 8): 0.16 nM; IC50 ([1]; IC50 (nM) Run 9, Table 2, 99.2% pure atropisomers of Example 2, Run 9): 0.27 nM; half-life [2]: 15.8 h; half-life ([2]; buffer): ~15 h
2 | Cc1onc(NS(=O)(=O)c2ccccc2-c2ccc(-c3ncco3)cc2CN(C)C(=O)CC(C)(C)C)c1C (single isomer, unassigned) [97% pure (+) dextrorotatory, N-[[2′-[[(4,5-dimethyl-3-isoxazolyl)amino]sulfonyl]-4-(2-oxazolyl)[1,1′-biphenyl]-2-yl]methyl]-N,3,3-trimethylbutanamide] | 0.03 | 0.01 | 0.01 | 0.01 | 0.002 | 0.002 | 0.7 | 0.1 | 0.3 | 0.38 | 0.34 | 0.38 | 0.41 | potency compared with the (−) levorotatory atropisomer or the racemate ([1]; endothelin antagonist, statement in words): remarkably higher potency
3 | Cc1onc(NS(=O)(=O)c2ccccc2-c2ccc(-c3ncco3)cc2CN(C)C(=O)CC(C)(C)C)c1C (single isomer, unassigned) [97% pure (−) levorotatory, N-[[2′-[[(4,5-dimethyl-3-isoxazolyl)amino]sulfonyl]-4-(2-oxazolyl)[1,1′-biphenyl]-2-yl]methyl]-N,3,3-trimethylbutanamide] | 0.41 | 0.9 | 0.6 | 1.4 | 0.1 | 0.65 | 6 | 5 | 7 | 3.7 | 21 | 14 | 19 | –
